Experimental data taken from ChEMBL document CHEMBL3091428, “Synthesis and initial biological evaluation of substituted 1-phenylamino-2-thio-4,5-dimethyl-1H-imidazole derivatives” (Bioorg Med Chem Lett, 2013).
Values after ≈ are worked out from the molar mass of the structure shown.

Tests used:
Type in all cases: functional
[1] = test system: Klebsiella pneumoniae; assay: Antimicrobial activity against Klebsiella pneumoniae ATCC 13883 after 24 hrs by broth microdilution method; details: ATCC 13883, 24 h
[2] = test system: Enterococcus faecalis; assay: Antimicrobial activity against Enterococcus faecalis ATCC 51299 after 24 hrs by broth microdilution method; details: ATCC 51299, 24 h
[3] = test system: Staphylococcus aureus; assay: Antimicrobial activity against Staphylococcus aureus ATCC 25923 after 24 hrs by broth microdilution method; details: ATCC 25923, 24 h
[4] = test system: Enterococcus faecalis; assay: Antimicrobial activity against Enterococcus faecalis ATCC 29212 after 24 hrs by broth microdilution method; details: ATCC 29212, 24 h
[5] = test system: Candida albicans; assay: Antimicrobial activity against Candida albicans ATCC 90028 after 24 hrs by broth microdilution method; details: ATCC 90028, 24 h
[6] = test system: Pichia kudriavzevii; assay: Antimicrobial activity against Candida krusei ATCC 6258 after 24 hrs by broth microdilution method; details: ATCC 6258, 24 h
[7] = test system: Listeria monocytogenes; assay: Antimicrobial activity against Listeria monocytogenes ATCC 19115 after 24 hrs by broth microdilution method; details: ATCC 19115, 24 h
[8] = test system: Escherichia coli; assay: Antimicrobial activity against Escherichia coli ATCC 35218 after 24 hrs by broth microdilution method; details: ATCC 35218, 24 h
[9] = test system: Escherichia coli; assay: Antimicrobial activity against Escherichia coli ATCC 25922 after 24 hrs by broth microdilution method; details: ATCC 25922, 24 h
[10] = test system: Pseudomonas aeruginosa; assay: Antimicrobial activity against Pseudomonas aeruginosa ATCC 27853 after 24 hrs by broth microdilution method; details: ATCC 27853, 24 h
[11] = test system: Nakaseomyces glabratus; assay: Antimicrobial activity against Candida glabrata ATCC 90030 after 24 hrs by broth microdilution method; details: ATCC 90030, 24 h

Row | SMILES | MIC [1] [µg/mL] | MIC [2] [µg/mL] | MIC [3] [µg/mL] | MIC [4] [µg/mL] | MIC [5] [µg/mL] | MIC [6] [µg/mL] | MIC [7] [µg/mL] | MIC [8] [µg/mL] | MIC [9] [µg/mL] | MIC [10] [µg/mL] | MIC [11] [µg/mL]
1 | Cc1ccc(Nn2c(SCC(=O)c3cccc(F)c3)nc(C)c2C)cc1 | 400 (≈ 1080 µM) | 400 (≈ 1080 µM) | 800 (≈ 2170 µM) | 200 (≈ 541 µM) | 800 (≈ 2170 µM) | 400 (≈ 1080 µM) | 400 (≈ 1080 µM) | 800 (≈ 2170 µM) | 800 (≈ 2170 µM) | 400 (≈ 1080 µM) | 800 (≈ 2170 µM)
2 | Cc1ccc(Nn2c(SCC(=O)c3ccc(F)c(F)c3)nc(C)c2C)cc1 | 800 (≈ 2060 µM) | 200 (≈ 516 µM) | 800 (≈ 2060 µM) | 400 (≈ 1030 µM) | 200 (≈ 516 µM) | 100 (≈ 258 µM) | 800 (≈ 2060 µM) | 800 (≈ 2060 µM) | 800 (≈ 2060 µM) | 800 (≈ 2060 µM) | 400 (≈ 1030 µM)
3 | Cc1ccc(Nn2c(SCC(=O)c3cccc(Cl)c3)nc(C)c2C)cc1 | 800 (≈ 2070 µM) | 800 (≈ 2070 µM) | 800 (≈ 2070 µM) | 800 (≈ 2070 µM) | 800 (≈ 2070 µM) | 800 (≈ 2070 µM) | 800 (≈ 2070 µM) | 800 (≈ 2070 µM) | 800 (≈ 2070 µM) | 800 (≈ 2070 µM) | 800 (≈ 2070 µM)
4 | Cc1ccc(Nn2c(SCC(=O)c3ccc(Cl)cc3)nc(C)c2C)cc1 | 800 (≈ 2070 µM) | 400 (≈ 1040 µM) | 800 (≈ 2070 µM) | 400 (≈ 1040 µM) | 400 (≈ 1040 µM) | 200 (≈ 518 µM) | 800 (≈ 2070 µM) | 800 (≈ 2070 µM) | 400 (≈ 1040 µM) | 800 (≈ 2070 µM) | 400 (≈ 1040 µM)
5 | Cc1ccc(Nn2c(SCC(=O)c3ccc(Cl)c(Cl)c3)nc(C)c2C)cc1 | 800 (≈ 1900 µM) | 400 (≈ 952 µM) | 800 (≈ 1900 µM) | 400 (≈ 952 µM) | 800 (≈ 1900 µM) | 800 (≈ 1900 µM) | 800 (≈ 1900 µM) | 800 (≈ 1900 µM) | 400 (≈ 952 µM) | 800 (≈ 1900 µM) | 800 (≈ 1900 µM)
6 | COc1ccc(Nn2c(SCC(=O)c3ccccc3)nc(C)c2C)cc1 | 800 (≈ 2180 µM) | 100 (≈ 272 µM) | 800 (≈ 2180 µM) | 800 (≈ 2180 µM) | 800 (≈ 2180 µM) | 800 (≈ 2180 µM) | 800 (≈ 2180 µM) | 800 (≈ 2180 µM) | 800 (≈ 2180 µM) | 800 (≈ 2180 µM) | 800 (≈ 2180 µM)
7 | COc1ccc(C(=O)CSc2nc(C)c(C)n2Nc2ccccc2)cc1OC | 400 (≈ 1010 µM) | 800 (≈ 2010 µM) | 200 (≈ 503 µM) | 400 (≈ 1010 µM) | 200 (≈ 503 µM) | 50 (≈ 126 µM) | 400 (≈ 1010 µM) | 200 (≈ 503 µM) | 800 (≈ 2010 µM) | 400 (≈ 1010 µM) | 800 (≈ 2010 µM)
8 | Cc1nc(SCC(=O)c2ccc(Cl)c(Cl)c2)n(Nc2ccccc2)c1C | 800 (≈ 1970 µM) | 800 (≈ 1970 µM) | 800 (≈ 1970 µM) | 200 (≈ 492 µM) | 400 (≈ 984 µM) | 200 (≈ 492 µM) | 400 (≈ 984 µM) | 800 (≈ 1970 µM) | 800 (≈ 1970 µM) | 400 (≈ 984 µM) | 200 (≈ 492 µM)

More lines, in order of falling MIC [1], values ahead:

Row | MIC [1] [µg/mL] | MIC [2] [µg/mL] | MIC [3] [µg/mL] | MIC [4] [µg/mL] | MIC [5] [µg/mL] | MIC [6] [µg/mL] | MIC [7] [µg/mL] | MIC [8] [µg/mL] | MIC [9] [µg/mL] | MIC [10] [µg/mL] | MIC [11] [µg/mL] | SMILES
9 | 1600 (≈ 4330 µM) | 1600 (≈ 4330 µM) | 1600 (≈ 4330 µM) | 1600 (≈ 4330 µM) | 1600 (≈ 4330 µM) | 1600 (≈ 4330 µM) | 1600 (≈ 4330 µM) | 1600 (≈ 4330 µM) | 1600 (≈ 4330 µM) | 1600 (≈ 4330 µM) | 1600 (≈ 4330 µM) | Cc1ccc(Nn2c(SCC(=O)c3ccc(F)cc3)nc(C)c2C)cc1
10 | 800 (≈ 2150 µM) | 400 (≈ 1080 µM) | 400 (≈ 1080 µM) | 400 (≈ 1080 µM) | 800 (≈ 2150 µM) | 200 (≈ 538 µM) | 400 (≈ 1080 µM) | 400 (≈ 1080 µM) | 400 (≈ 1080 µM) | 400 (≈ 1080 µM) | 400 (≈ 1080 µM) | Cc1nc(SCC(=O)c2cccc(Cl)c2)n(Nc2ccccc2)c1C
11 | 800 (≈ 2100 µM) | 400 (≈ 1050 µM) | 800 (≈ 2100 µM) | 800 (≈ 2100 µM) | 400 (≈ 1050 µM) | 200 (≈ 524 µM) | 400 (≈ 1050 µM) | 200 (≈ 524 µM) | 800 (≈ 2100 µM) | 800 (≈ 2100 µM) | 400 (≈ 1050 µM) | COc1cccc(C(=O)CSc2nc(C)c(C)n2Nc2ccc(C)cc2)c1
12 | 400 (≈ 1090 µM) | 800 (≈ 2180 µM) | 800 (≈ 2180 µM) | 800 (≈ 2180 µM) | 400 (≈ 1090 µM) | 400 (≈ 1090 µM) | 800 (≈ 2180 µM) | 800 (≈ 2180 µM) | 400 (≈ 1090 µM) | 400 (≈ 1090 µM) | 400 (≈ 1090 µM) | COc1cccc(C(=O)CSc2nc(C)c(C)n2Nc2ccccc2)c1
13 | 400 (≈ 1130 µM) | 400 (≈ 1130 µM) | 400 (≈ 1130 µM) | 400 (≈ 1130 µM) | 400 (≈ 1130 µM) | 200 (≈ 563 µM) | 400 (≈ 1130 µM) | 400 (≈ 1130 µM) | 800 (≈ 2250 µM) | 400 (≈ 1130 µM) | 400 (≈ 1130 µM) | Cc1nc(SCC(=O)c2cccc(F)c2)n(Nc2ccccc2)c1C
14 | 400 (≈ 1130 µM) | 400 (≈ 1130 µM) | 800 (≈ 2250 µM) | 400 (≈ 1130 µM) | 400 (≈ 1130 µM) | 200 (≈ 563 µM) | 400 (≈ 1130 µM) | 400 (≈ 1130 µM) | 800 (≈ 2250 µM) | 400 (≈ 1130 µM) | 400 (≈ 1130 µM) | Cc1nc(SCC(=O)c2ccc(F)cc2)n(Nc2ccccc2)c1C
15 | 400 (≈ 1140 µM) | 800 (≈ 2280 µM) | 800 (≈ 2280 µM) | 400 (≈ 1140 µM) | 800 (≈ 2280 µM) | 400 (≈ 1140 µM) | 800 (≈ 2280 µM) | 200 (≈ 569 µM) | 800 (≈ 2280 µM) | 800 (≈ 2280 µM) | 400 (≈ 1140 µM) | Cc1ccc(Nn2c(SCC(=O)c3ccccc3)nc(C)c2C)cc1
